Tests used:
Assay in all cases: relative viability (nuclei count vs DMSO), 5 days (fraction); higher = more cells survive
Metformin = compound: CN(C)C(=N)NC(=N)N [Metformin]
In short: (§1)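 Only plates meeting two conditions passed: control CV below 25% and at least one doubling. Lung cancer cell lines, kept overnight at 37 °C in 1536-well plates, were pinned with five library-drug doses (not always all listed) √10 apart on vehicle-anchored plates and grown 5 days without medium change. A one-step fix, permeabilisation and Hoechst stain preceded 4× imaging and MetaXpress nuclear counting. Viability equals treated-well nuclei divided by vehicle-well nuclei, as the median over plates.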

Apatinib = compound: N#CC1(c2ccc(NC(=O)c3cccnc3NCc3ccncc3)cc2)CCCC1 [Apatinib]
In short: as §1

Apatinib + Pemetrexed = compound: N#CC1(c2ccc(NC(=O)c3cccnc3NCc3ccncc3)cc2)CCCC1 [Apatinib] + Nc1nc2[nH]cc(CCc3ccc(C(=O)N[C@@H](CCC(=O)O)C(=O)O)cc3)c2c(=O)[nH]1 [Pemetrexed] (partner 0.2 µM)
In short: (§2)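 Nuclei were stained with Hoechst during a one-step fixation (final 0.05% Triton X-100, 1% formaldehyde, 1 ug/ml Hoechst) carried out 5 days after dosing, then counted on 4× images. The cells, lung cancer lines in 1536-well plates, had been dosed by pin tool the day after seeding with one drug alone or a fixed anchor-drug dose plus five library-drug doses (not always all listed) in √10 steps. Relative viability is the nuclei count in treated wells divided by that in vehicle wells, and each value is the median of duplicate plates.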

Metformin + Alpelisib = compound: CN(C)C(=N)NC(=N)N [Metformin] + Cc1nc(NC(=O)N2CCC[C@H]2C(N)=O)sc1-c1ccnc(C(C)(C)C(F)(F)F)c1 [Alpelisib] (partner 2 µM)
In short: as §2

| Cell Line | relative viability (Metformin; 10 µM) | relative viability (Metformin; 31.62 µM) | relative viability (Metformin; 100 µM) | relative viability (Metformin; 316.23 µM) | relative viability (Metformin; 1000 µM) | relative viability (Apatinib; 0.08 µM) | relative viability (Apatinib; 0.253 µM) | relative viability (Apatinib; 0.8 µM) | relative viability (Apatinib; 2.53 µM) | relative viability (Apatinib; 8 µM) | relative viability (Apatinib + Pemetrexed; first compound 0.08 µM) | relative viability (Apatinib + Pemetrexed; first compound 0.253 µM) | relative viability (Apatinib + Pemetrexed; first compound 0.8 µM) | relative viability (Apatinib + Pemetrexed; first compound 2.53 µM) | relative viability (Apatinib + Pemetrexed; first compound 8 µM) | relative viability (Metformin + Alpelisib; first compound 10 µM) | relative viability (Metformin + Alpelisib; first compound 31.62 µM) | relative viability (Metformin + Alpelisib; first compound 100 µM) | relative viability (Metformin + Alpelisib; first compound 316.23 µM) | relative viability (Metformin + Alpelisib; first compound 1000 µM) |
| --- | --- | --- | --- | --- | --- | --- | --- | --- | --- | --- | --- | --- | --- | --- | --- | --- | --- | --- | --- | --- |
| NCI-H1355 | 0.838 | 0.953 | 0.963 | 0.992 | 1.05 | 0.993 | 0.962 | 0.956 | 0.9 | 0.885 | 1.09 | 1.01 | 1 | 0.898 | 0.918 | 0.746 | 0.787 | 0.853 | 0.857 | 0.842 |
| NCI-H1395 | 1.06 | 1.3 | 0.96 | 0.956 | 0.521 | 0.914 | 1.11 | 0.964 | 0.685 | 0.844 | 0.913 | 0.802 | 0.881 | 0.685 | 0.635 | 0.835 | 1.02 | 1.1 | 0.424 | 0.342 |
| NCI-H1437 | 1.09 | 1.16 | 1.01 | 1.04 | 1.08 | 0.949 | 0.995 | 0.996 | 0.83 | 0.799 | 0.328 | 0.293 | 0.306 | 0.29 | 0.256 | 1.11 | 1.03 | 1.07 | 1.05 | 1.01 |
| NCI-H1563 | 0.954 | 1.11 | 1.16 | 1.07 | 1.14 | 0.961 | 1.08 | 0.98 | 0.931 | 0.867 | 0.622 | 0.765 | 0.795 | 0.708 | 0.681 | 1.06 | 0.914 | 1.06 | 0.827 | 0.72 |
| NCI-H1651 | 1.08 | 1.17 | 1.12 | 1.11 | 1.11 | 0.988 | 0.984 | 0.986 | 0.939 | 0.871 | 0.552 | 0.555 | 0.556 | 0.531 | 0.483 | 1.21 | 1.13 | 1.14 | 1.08 | 1.15 |
| NCI-H1666 | 0.938 | 1.11 | 0.971 | 1.07 | 1.09 | 1.01 | 0.958 | 0.969 | 0.997 | 0.986 | 0.874 | 0.858 | 0.842 | 0.802 | 0.672 | 0.943 | 1.05 | 1.12 | 0.981 | 1.29 |
| NCI-H1734 | 1.01 | 1.03 | 1.04 | 1.01 | 1.02 | 1.18 | 0.987 | 0.991 | 0.909 | 0.845 | 0.452 | 0.456 | 0.429 | 0.403 | 0.255 | 0.697 | 0.718 | 0.715 | 0.681 | 0.827 |
| NCI-H1755 | 0.807 | 0.891 | 0.864 | 0.853 | 0.897 | 1.02 | 1 | 1 | 1.06 | 0.951 | 0.423 | 0.441 | 0.402 | 0.329 | 0.364 | 0.767 | 0.826 | 0.796 | 0.724 | 0.798 |
| NCI-H1792 | 0.901 | 0.969 | 1.06 | 1.01 | 1.05 | 0.884 | 0.883 | 0.887 | 0.863 | 0.725 | 0.984 | 0.722 | 0.993 | 0.558 | 0.447 | – | 0.798 | 0.979 | 0.691 | 0.869 |
| NCI-H1793 | 0.943 | 1.01 | 0.993 | 0.977 | 1.25 | 1.02 | 1.01 | 0.857 | 0.772 | 0.749 | 1.1 | 0.932 | 0.871 | 0.726 | 0.633 | 1.17 | 1.03 | 0.953 | 0.761 | 0.919 |
| NCI-H1915 | – | 0.998 | 1.02 | 0.968 | 1.01 | 1.06 | 0.959 | 0.963 | 0.879 | 0.821 | 0.503 | 0.493 | 0.512 | 0.408 | 0.392 | – | 1.14 | 1.09 | 1.04 | 1.11 |
| NCI-H1944 | 0.845 | 1.1 | 0.954 | 0.882 | 1.04 | 0.948 | 0.921 | 0.886 | 0.791 | 0.921 | 0.687 | 0.562 | 0.501 | 0.456 | 0.51 | 0.936 | 1.01 | 1.06 | 0.886 | 0.973 |
| NCI-H1975 | 1.06 | 1.16 | 1.09 | 1.12 | 1.21 | 0.97 | 0.981 | 0.91 | 0.844 | 0.943 | 0.296 | 0.299 | 0.271 | 0.282 | 0.203 | 0.766 | 0.839 | 0.862 | 0.707 | 0.861 |
| NCI-H1993 | 1.03 | 0.892 | 1 | 0.872 | 1.07 | 1.01 | 0.923 | 0.889 | 0.833 | 0.869 | 0.593 | 0.566 | 0.605 | 0.549 | 0.549 | 0.634 | 0.67 | 0.643 | 0.62 | 0.705 |
| NCI-H2009 | 0.889 | 1.1 | 1.04 | 1.02 | 1.03 | 1.06 | 0.979 | 0.968 | 0.762 | 0.618 | 1.07 | 0.996 | 0.902 | 0.879 | 0.661 | 1.25 | 1.16 | 1.13 | 1.17 | 1.1 |
| NCI-H2023 | 0.782 | 1.13 | 0.921 | 0.853 | 0.769 | 1.01 | 0.94 | 0.974 | 0.881 | 0.883 | 0.212 | 0.278 | 0.2 | 0.191 | 0.204 | – | 0.558 | 0.627 | – | 0.506 |
